Experimental data as given in PubChem BioAssay AID1963839 (Molecular Pharmacology Branch, DTP, NCI, 2024).
pIC50: −log10 of the molar value.

Test system: 817829-284-R-J1-PDC complex spheroid viability
Test: Anticancer human tumor 817829-284-R-J1-PDC patient-derived colon adenocarcinoma cell line growth inhibition [POLQ]
Conditions: for pIC50: curve of first compound; for viability, T/C: stronger effect = lower value
Procedure: Multicellular complex tumor spheroid response to Polymerase (POL) inhibitors (novobiocin, ART-558, RP6685) in combination with a variety of drugs and investigational agents in selected tumor cell lines
The POL inhibitors (novobiocin, ART-558, and RP6685) were evaluated both individually and in combination with standard of care and investigational anticancer small molecules within a complex spheroid model of solid tumors. . Complex spheroids include a stromal component modeled by human endothelial cells (HUVEC) and fibroblasts modeled by human mesenchymal stem cells (MSCs). The concentration ranges selected for each drug and investigational agent were based upon clinically achievable concentrations if the clinical Cmax of the agent was known.
Compounds. The drugs and investigational agents: novobiocin (NSC847541), ART-558 (NSC835418), RP-6685 (NSC848927), peposertib (NSC802822), ceralasertib (NSC780249), elimusertib (NSC800525), camonsertib (NSC841442), AZD-1390 (NSC803789), olaparib (NSC753686), talazoparib (NSC767125), rucaparib (NSC756644), sotorasib (NSC818433), MRTX-1133 (NSC836407), SN-38 (NSC673596), topotecan (NSC609699), epotoside (NSC141540), doxorubicin (NSC123127), gemcitabine (NSC613327), 5-fluorouracil (NSC19893), paclitaxel (NSC125973), vemurafenib (NSC761431), MSA-2 (NSC828583), SN-011 (NSC837082), adavosertib (NSC754352), prexasertib (NSC758257), carboplatin (NSC241240) and oxaliplatin (NSC266046), were obtained from the National Cancer Institute (NCI) Developmental Therapeutics Program Chemical Repository (21). The FDA-approved anticancer drug set is available from the Developmental Therapeutics Program at https://dtp.cancer.gov/organization/dscb/obtaining/. […] The stock solutions were prepared in dimethyl sulfoxide (DMSO, Sigma-Aldrich, St. Louis, MO, cat. D2650), except for the platinum compounds which were prepared in saline (Quality Biological, Gaithersburg, MD, cat. 114-055-101), at 800-fold the tested concentration and stored at -70 degrees C prior to their use. All drugs and investigational agents were tested over a range starting from a high concentration at or near the clinical Cmax and decreasing in half-log increments. If the clinical Cmax for an agent had not been determined, the highest concentration tested was 10 microM, except for SN-38, which was tested at a high concentration of 1 microM.
Cell Culture. All cells were maintained in an incubator at 37 degrees C and 5% CO2 with 95% humidity. The PDC lines were cultured according to standard operating procedures established by the NCI PDMR (https://pdmr.cancer.gov). Table 3 of the manuscript, lists the cell lines along with the number of the three cell types plated to form the mct-spheroids and media for tumor cell growth. After thawing, all PDC lines, except 997537-175-T-J1-PDC and 415267-285-R-J2-PDC, were cultured in Matrigel-coated flasks prepared with a working solution of 1X Ham's F-12 nutrient mix, without supplementation (Thermo Fisher Scientific, cat. 11765054), 100 U/mL penicillin-streptomycin (Thermo Fisher Scientific, cat. 15140122), and 2.5% Matrigel (Corning Inc., Corning, NY, cat. 354248) for the first three passages. The two PDC lines 997537-175-T-J1-PDC and 415267-285-R-J2-PDC were cultured on uncoated flasks. The 857933-349-R-J2-PDC line was cultured in 6C/Colon 1B media containing advanced DMEM/F-12 (Thermo Fisher Scientific, cat. 12634028), 10 mM HEPES (Thermo Fisher Scientific, cat. 15630080), 1X GlutaMAX supplement (Thermo Fisher Scientific, cat. 35050061), 0.1 mg/mL primocin (InvivoGen, San Diego, CA, cat. ant-pm-2), 10% defined fetal bovine serum, heat inactivated (HyClone Laboratories Inc., Logan, UT, cat. SH30070.03HI), 50% L-WRN conditioned media (ATCC, cat. CRL-3276), 1.25 mM N-Acetyl-L-cysteine (Sigma-Aldrich, cat. A9165), 10 mM nicotinamide (Sigma-Aldrich, cat. N0636), 1X B-27 supplement (Thermo Fisher Scientific, cat. 17504044), 1X N-2 supplement (Thermo Fisher Scientific, cat. […]

[1] = second compound 0.0316 µM, first compound 0.0316 µM
[2] = second compound 0.0316 µM, first compound 0.1 µM
[3] = second compound 0.0316 µM, first compound 0.316 µM
[4] = second compound 0.0316 µM, first compound 1 µM
[5] = second compound 0.0316 µM, first compound 3.16 µM
[6] = second compound 0.0316 µM, first compound 10 µM
[7] = second compound 0.1 µM, first compound 0.0316 µM
[8] = second compound 0.1 µM, first compound 0.1 µM
[9] = second compound 0.1 µM, first compound 0.316 µM
[10] = second compound 0.1 µM, first compound 1 µM
[11] = second compound 0.1 µM, first compound 3.16 µM
[12] = second compound 0.1 µM, first compound 10 µM
[13] = second compound 0.316 µM, first compound 0.0316 µM
[14] = second compound 0.316 µM, first compound 0.1 µM
[15] = second compound 0.316 µM, first compound 0.316 µM
[16] = second compound 0.316 µM, first compound 1 µM
[17] = second compound 0.316 µM, first compound 3.16 µM
[18] = second compound 0.316 µM, first compound 10 µM
[19] = second compound 1 µM, first compound 0.0316 µM
[20] = second compound 1 µM, first compound 0.1 µM
[21] = second compound 1 µM, first compound 0.316 µM
[22] = second compound 1 µM, first compound 1 µM
[23] = second compound 1 µM, first compound 3.16 µM
[24] = second compound 1 µM, first compound 10 µM
[25] = second compound 3.16 µM, first compound 0.0316 µM
[26] = second compound 3.16 µM, first compound 0.1 µM
[27] = second compound 3.16 µM, first compound 0.316 µM
[28] = second compound 3.16 µM, first compound 1 µM
[29] = second compound 3.16 µM, first compound 3.16 µM
[30] = second compound 3.16 µM, first compound 10 µM
[31] = second compound 10 µM, first compound 0.0316 µM
[32] = second compound 10 µM, first compound 0.1 µM
[33] = second compound 10 µM, first compound 0.316 µM
[34] = second compound 10 µM, first compound 1 µM
[35] = second compound 10 µM, first compound 3.16 µM
[36] = second compound 10 µM, first compound 10 µM
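Also: spheroids exposed to compounds for 7 days.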
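For viability, T/C in this document: 100% = DMSO vehicle-treated spheroids.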

O=C(Nc1ccc(O)c(NS(=O)(=O)c2ccc(F)cc2)c1)c1ccc(-c2ccccc2)cc1 + Nc1ccc(C#CCN(C(=O)Cc2ncc(C(F)(F)F)cc2C(F)(F)F)c2ccc(F)cc2)nn1
pIC50 (second compound 0.0316 µM): 5.19 | pIC50 (second compound 0.1 µM): 5.15 | pIC50 (second compound 0.316 µM): 5.17 | pIC50 (second compound 1 µM): 5.11 | pIC50 (second compound 3.16 µM): 5.15 | pIC50 (second compound 10 µM): 5.16 | viability, T/C [1]: 109% | viability, T/C [2]: 94.8% | viability, T/C [3]: 107% | viability, T/C [4]: 101% | viability, T/C [5]: 70.2% | viability, T/C [6]: 38.1% | viability, T/C [7]: 103% | viability, T/C [8]: 110% | viability, T/C [9]: 90.6% | viability, T/C [10]: 102% | viability, T/C [11]: 74.7% | viability, T/C [12]: 39.7% | viability, T/C [13]: 113% | viability, T/C [14]: 105% | viability, T/C [15]: 105% | viability, T/C [16]: 107% | viability, T/C [17]: 76.9% | viability, T/C [18]: 36.5% | viability, T/C [19]: 113% | viability, T/C [20]: 102% | viability, T/C [21]: 100% | viability, T/C [22]: 98.2% | viability, T/C [23]: 86.6% | viability, T/C [24]: 39.5% | viability, T/C [25]: 100% | viability, T/C [26]: 98.5% | viability, T/C [27]: 119% | viability, T/C [28]: 96.2% | viability, T/C [29]: 88% | viability, T/C [30]: 34.1% | viability, T/C [31]: 103% | viability, T/C [32]: 88.9% | viability, T/C [33]: 113% | viability, T/C [34]: 97.2% | viability, T/C [35]: 85.3% | viability, T/C [36]: 33.8%

O=C(c1cc(Cc2n[nH]c(=O)c3ccccc23)ccc1F)N1CCN(C(=O)C2CC2)CC1 + Nc1ccc(C#CCN(C(=O)Cc2ncc(C(F)(F)F)cc2C(F)(F)F)c2ccc(F)cc2)nn1
pIC50 (second compound 0.0316 µM): 5.29 | pIC50 (second compound 0.1 µM): 5.60 | pIC50 (second compound 0.316 µM): 5.40 | pIC50 (second compound 1 µM): 5.34 | pIC50 (second compound 3.16 µM): 5.37 | pIC50 (second compound 10 µM): 5.32 | viability, T/C [1]: 118% | viability, T/C [2]: 96% | viability, T/C [3]: 93.7% | viability, T/C [4]: 91.6% | viability, T/C [5]: 58.1% | viability, T/C [6]: 32.9% | viability, T/C [7]: 108% | viability, T/C [8]: 103% | viability, T/C [9]: 83.2% | viability, T/C [10]: 66.8% | viability, T/C [11]: 47% | viability, T/C [12]: 27.4% | viability, T/C [13]: 90.3% | viability, T/C [14]: 94% | viability, T/C [15]: 98.1% | viability, T/C [16]: 93.5% | viability, T/C [17]: 55% | viability, T/C [18]: 30.9% | viability, T/C [19]: 106% | viability, T/C [20]: 94.5% | viability, T/C [21]: 89.6% | viability, T/C [22]: 85.2% | viability, T/C [23]: 58.2% | viability, T/C [24]: 27.8% | viability, T/C [25]: 113% | viability, T/C [26]: 104% | viability, T/C [27]: 112% | viability, T/C [28]: 92.5% | viability, T/C [29]: 58.6% | viability, T/C [30]: 26% | viability, T/C [31]: 104% | viability, T/C [32]: 94.8% | viability, T/C [33]: 86.7% | viability, T/C [34]: 94.8% | viability, T/C [35]: 63.5% | viability, T/C [36]: 25.1%
